From article PMC9030254, “Target Hopping from Protein Kinases to PXR: Identification of Small-Molecule Protein Kinase Inhibitors as Selective Modulators of Pregnane X Receptor from TüKIC Library” (Cells, 2022)

Tests used:
Assay in all cases: Kinase profiling
Format in all cases: biochemical
DNAPK = target: T1, DNAPK (Homo sapiens, UniProt P78527)
T1 construct: purchased ProQinase (Freiburg, Germany)
Protocol: (§1) The analysis was performed by ProQinase (Freiburg, Germany).

TTBK2 = target: T2, TTBK2 (Homo sapiens, UniProt Q6IQ55)
T2 construct: purchased ProQinase (Freiburg, Germany)
Protocol: as §1

AXL = target: T3, AXL (Homo sapiens, UniProt P30530)
T3 construct: purchased ProQinase (Freiburg, Germany)
T3 sequence (P30530 26-894): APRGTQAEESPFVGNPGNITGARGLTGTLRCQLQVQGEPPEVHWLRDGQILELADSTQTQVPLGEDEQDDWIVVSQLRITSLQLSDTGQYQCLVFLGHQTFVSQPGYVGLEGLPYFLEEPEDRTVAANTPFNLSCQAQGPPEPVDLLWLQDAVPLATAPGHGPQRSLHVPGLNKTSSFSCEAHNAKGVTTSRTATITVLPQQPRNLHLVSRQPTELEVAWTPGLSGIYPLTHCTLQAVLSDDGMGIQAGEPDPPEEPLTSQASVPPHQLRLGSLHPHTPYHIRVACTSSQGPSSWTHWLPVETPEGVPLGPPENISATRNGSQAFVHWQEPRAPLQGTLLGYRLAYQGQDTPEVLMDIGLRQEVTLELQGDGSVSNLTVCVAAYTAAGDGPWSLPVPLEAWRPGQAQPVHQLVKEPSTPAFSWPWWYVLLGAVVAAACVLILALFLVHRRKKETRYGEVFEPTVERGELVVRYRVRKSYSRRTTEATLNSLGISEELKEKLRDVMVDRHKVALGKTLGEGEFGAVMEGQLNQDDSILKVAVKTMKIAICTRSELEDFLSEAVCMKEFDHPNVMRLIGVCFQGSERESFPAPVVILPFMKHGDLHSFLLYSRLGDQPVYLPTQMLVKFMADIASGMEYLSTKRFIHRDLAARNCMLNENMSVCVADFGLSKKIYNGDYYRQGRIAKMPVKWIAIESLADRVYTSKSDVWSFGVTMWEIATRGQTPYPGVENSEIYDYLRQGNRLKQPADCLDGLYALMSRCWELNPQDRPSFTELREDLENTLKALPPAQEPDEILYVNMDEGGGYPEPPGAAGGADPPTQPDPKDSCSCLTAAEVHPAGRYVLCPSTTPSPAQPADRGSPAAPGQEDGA
Protocol: as §1

PAK3 = target: T4, PAK3 (Homo sapiens, UniProt O75914)
T4 construct: purchased ProQinase (Freiburg, Germany)
Protocol: as §1

AKT2 = target: T5, AKT2 (Homo sapiens, UniProt P31751)
T5 construct: purchased ProQinase (Freiburg, Germany)
Protocol: as §1

SRMS = target: T6, SRMS (Homo sapiens, UniProt Q9H3Y6)
T6 construct: purchased ProQinase (Freiburg, Germany)
Protocol: as §1

MKK7 = target: T7, MKK7 (Homo sapiens, UniProt O14733)
T7 construct: purchased ProQinase (Freiburg, Germany)
T7 sequence (O14733 1-419): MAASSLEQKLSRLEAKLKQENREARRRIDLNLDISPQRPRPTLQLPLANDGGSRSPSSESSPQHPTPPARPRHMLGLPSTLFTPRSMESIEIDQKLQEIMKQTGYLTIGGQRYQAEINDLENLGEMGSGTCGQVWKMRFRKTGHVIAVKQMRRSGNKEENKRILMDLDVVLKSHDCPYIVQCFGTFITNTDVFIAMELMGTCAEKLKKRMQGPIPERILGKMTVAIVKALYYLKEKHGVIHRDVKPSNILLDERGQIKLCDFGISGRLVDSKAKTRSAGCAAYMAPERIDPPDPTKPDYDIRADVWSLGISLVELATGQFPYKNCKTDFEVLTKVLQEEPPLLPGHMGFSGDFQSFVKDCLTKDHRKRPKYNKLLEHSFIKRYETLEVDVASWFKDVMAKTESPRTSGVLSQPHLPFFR
Protocol: as §1

TBK1 = target: T8, TBK1 (Homo sapiens, UniProt Q9UHD2)
T8 construct: purchased ProQinase (Freiburg, Germany)
T8 sequence (Q9UHD2 1-729): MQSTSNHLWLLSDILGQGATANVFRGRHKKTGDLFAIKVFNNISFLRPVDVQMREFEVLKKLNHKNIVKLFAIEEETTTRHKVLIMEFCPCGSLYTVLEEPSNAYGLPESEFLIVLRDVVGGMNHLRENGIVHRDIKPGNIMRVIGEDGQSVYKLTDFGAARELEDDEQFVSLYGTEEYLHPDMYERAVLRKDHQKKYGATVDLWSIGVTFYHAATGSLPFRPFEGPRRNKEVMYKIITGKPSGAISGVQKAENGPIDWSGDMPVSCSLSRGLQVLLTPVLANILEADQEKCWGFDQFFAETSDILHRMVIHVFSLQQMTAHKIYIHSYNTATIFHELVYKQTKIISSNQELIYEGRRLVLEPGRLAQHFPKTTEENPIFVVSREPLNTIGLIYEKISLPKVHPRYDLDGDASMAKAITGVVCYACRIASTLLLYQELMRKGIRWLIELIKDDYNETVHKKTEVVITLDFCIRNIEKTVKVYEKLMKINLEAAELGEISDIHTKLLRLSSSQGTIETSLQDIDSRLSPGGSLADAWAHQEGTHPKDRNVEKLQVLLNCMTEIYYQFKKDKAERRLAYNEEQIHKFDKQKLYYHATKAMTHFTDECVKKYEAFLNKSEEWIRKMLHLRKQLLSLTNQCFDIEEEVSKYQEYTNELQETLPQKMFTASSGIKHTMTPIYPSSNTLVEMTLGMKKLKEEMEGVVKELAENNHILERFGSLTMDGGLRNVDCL
Protocol: as §1

MLK4 = target: T9, MLK4 (Homo sapiens, UniProt Q5TCX8)
T9 construct: purchased ProQinase (Freiburg, Germany)
Protocol: as §1

T6 sequence (Q9H3Y6 whole entry): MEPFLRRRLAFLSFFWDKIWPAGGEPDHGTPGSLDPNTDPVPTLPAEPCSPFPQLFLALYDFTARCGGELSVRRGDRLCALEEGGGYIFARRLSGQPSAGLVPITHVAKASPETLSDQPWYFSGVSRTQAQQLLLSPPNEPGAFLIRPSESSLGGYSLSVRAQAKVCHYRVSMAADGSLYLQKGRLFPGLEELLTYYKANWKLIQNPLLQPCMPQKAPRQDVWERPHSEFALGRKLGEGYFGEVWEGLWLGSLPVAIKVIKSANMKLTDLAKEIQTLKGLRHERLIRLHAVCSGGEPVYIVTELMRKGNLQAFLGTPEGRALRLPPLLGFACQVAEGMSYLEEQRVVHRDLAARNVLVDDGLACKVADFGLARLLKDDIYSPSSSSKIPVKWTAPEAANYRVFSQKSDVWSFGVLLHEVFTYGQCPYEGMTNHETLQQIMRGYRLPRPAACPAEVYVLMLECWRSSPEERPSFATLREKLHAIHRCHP
T4 sequence (O75914 whole entry): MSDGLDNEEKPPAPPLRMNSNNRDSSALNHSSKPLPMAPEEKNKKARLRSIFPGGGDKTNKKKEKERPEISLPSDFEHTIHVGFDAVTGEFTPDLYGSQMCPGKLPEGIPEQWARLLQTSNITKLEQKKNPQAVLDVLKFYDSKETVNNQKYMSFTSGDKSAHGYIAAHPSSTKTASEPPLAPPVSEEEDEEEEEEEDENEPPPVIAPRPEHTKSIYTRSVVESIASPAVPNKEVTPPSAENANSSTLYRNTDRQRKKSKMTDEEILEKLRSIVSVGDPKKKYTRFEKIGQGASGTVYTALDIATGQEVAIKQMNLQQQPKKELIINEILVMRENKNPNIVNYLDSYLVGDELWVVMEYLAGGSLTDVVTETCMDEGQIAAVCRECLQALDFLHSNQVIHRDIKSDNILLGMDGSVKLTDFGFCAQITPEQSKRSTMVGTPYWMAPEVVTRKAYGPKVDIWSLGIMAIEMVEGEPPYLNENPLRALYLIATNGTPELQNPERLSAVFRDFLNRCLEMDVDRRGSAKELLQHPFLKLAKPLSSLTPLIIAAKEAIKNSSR
T9 sequence (Q5TCX8 whole entry): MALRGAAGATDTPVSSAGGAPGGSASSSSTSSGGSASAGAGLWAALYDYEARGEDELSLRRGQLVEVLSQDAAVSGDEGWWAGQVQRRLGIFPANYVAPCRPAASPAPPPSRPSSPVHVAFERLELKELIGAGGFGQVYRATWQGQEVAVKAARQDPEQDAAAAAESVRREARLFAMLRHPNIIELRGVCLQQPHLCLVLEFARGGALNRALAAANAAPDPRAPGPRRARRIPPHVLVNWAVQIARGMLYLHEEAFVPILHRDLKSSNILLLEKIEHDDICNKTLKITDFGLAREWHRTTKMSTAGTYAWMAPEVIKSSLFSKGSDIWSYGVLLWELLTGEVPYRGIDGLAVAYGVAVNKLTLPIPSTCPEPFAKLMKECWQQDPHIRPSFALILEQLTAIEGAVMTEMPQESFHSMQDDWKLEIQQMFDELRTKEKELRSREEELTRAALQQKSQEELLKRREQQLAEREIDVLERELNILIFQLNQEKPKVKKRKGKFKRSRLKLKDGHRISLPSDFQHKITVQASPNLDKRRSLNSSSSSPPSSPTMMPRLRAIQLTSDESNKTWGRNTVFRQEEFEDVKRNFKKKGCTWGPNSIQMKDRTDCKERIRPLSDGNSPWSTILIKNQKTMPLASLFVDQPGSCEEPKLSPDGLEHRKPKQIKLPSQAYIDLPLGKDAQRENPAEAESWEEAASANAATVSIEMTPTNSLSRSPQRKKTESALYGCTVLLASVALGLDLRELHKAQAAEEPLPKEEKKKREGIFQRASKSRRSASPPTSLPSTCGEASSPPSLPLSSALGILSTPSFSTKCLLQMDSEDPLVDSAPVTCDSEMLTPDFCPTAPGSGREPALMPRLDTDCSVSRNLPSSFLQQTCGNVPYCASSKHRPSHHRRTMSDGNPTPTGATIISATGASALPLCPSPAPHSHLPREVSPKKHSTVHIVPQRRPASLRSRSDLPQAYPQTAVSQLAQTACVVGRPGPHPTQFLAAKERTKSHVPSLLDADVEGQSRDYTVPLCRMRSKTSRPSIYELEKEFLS
T2 sequence (Q6IQ55 whole entry): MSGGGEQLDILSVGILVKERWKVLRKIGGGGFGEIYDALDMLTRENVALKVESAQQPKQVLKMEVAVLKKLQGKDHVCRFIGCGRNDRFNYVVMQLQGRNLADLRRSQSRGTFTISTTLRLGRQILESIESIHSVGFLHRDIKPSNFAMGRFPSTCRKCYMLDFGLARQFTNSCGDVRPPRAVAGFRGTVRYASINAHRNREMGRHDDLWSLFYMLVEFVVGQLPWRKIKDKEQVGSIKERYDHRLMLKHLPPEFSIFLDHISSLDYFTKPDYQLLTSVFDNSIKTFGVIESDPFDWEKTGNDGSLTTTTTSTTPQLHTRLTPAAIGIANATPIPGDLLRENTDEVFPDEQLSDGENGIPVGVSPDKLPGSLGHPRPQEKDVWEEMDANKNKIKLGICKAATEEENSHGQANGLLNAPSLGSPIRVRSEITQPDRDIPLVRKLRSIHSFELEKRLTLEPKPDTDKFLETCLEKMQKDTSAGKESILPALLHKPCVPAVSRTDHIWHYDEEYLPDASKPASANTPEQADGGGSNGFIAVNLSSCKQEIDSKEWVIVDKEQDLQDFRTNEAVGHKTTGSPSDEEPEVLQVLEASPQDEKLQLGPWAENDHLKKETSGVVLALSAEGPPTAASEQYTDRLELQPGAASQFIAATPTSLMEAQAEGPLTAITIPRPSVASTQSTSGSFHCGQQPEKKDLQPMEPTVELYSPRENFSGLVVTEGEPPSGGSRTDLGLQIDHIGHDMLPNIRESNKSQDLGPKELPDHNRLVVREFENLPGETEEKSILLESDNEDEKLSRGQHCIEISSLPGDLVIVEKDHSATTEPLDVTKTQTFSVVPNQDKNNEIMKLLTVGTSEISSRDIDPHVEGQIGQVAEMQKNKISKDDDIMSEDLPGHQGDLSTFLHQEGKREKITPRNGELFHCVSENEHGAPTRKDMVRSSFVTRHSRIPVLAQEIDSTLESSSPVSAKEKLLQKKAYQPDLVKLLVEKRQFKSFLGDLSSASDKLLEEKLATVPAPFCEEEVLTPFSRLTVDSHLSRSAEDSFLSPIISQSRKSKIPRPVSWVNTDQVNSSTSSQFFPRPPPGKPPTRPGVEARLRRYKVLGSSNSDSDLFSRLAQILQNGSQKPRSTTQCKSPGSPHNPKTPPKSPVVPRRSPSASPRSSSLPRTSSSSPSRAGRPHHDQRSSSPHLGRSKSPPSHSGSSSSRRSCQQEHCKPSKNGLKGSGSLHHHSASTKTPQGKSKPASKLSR
T5 sequence (P31751 whole entry): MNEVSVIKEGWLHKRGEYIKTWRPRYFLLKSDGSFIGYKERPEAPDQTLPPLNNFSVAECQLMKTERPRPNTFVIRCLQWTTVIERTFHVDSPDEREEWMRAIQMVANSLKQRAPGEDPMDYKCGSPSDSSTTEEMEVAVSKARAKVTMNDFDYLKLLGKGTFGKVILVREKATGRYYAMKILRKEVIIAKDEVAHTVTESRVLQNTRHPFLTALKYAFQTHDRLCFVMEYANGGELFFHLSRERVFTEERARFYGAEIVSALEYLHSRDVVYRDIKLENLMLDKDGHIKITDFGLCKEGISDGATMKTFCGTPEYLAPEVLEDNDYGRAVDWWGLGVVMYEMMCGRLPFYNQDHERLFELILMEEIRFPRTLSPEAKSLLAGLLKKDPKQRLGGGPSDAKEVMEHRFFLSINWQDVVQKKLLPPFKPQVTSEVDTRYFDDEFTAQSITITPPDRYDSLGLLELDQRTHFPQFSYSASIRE

SMILES	Residual activity (DNAPK; 1.0E-05 M)	Residual activity (DNAPK; 1.0E-06 M)	Residual activity (TTBK2; 1.0E-05 M)	Residual activity (TTBK2; 1.0E-06 M)	Residual activity (AXL; 1.0E-05 M)	Residual activity (AXL; 1.0E-06 M)	Residual activity (PAK3; 1.0E-05 M)	Residual activity (PAK3; 1.0E-06 M)	Residual activity (AKT2; 1.0E-05 M)	Residual activity (AKT2; 1.0E-06 M)	Residual activity (SRMS; 1.0E-05 M)	Residual activity (SRMS; 1.0E-06 M)	Residual activity (MKK7; 1.0E-05 M)	Residual activity (MKK7; 1.0E-06 M)	Residual activity (TBK1; 1.0E-05 M)	Residual activity (TBK1; 1.0E-06 M)	Residual activity (MLK4; 1.0E-05 M)	Residual activity (MLK4; 1.0E-06 M)
O=C(Cc1ccccc1)Nc1ccc(F)c(Nc2ccc3c(c2)CCCCC3=O)c1 [Compound 100]	97 % of control	95 % of control	126 % of control	109 % of control	99 % of control	103 % of control	74 % of control	88 % of control	82 % of control	92 % of control	93 % of control	102 % of control	110 % of control	101 % of control	101 % of control	103 % of control	102 % of control	94 % of control
O=C(Nc1ccc(F)c(Nc2ccc3c(c2)CCCCC3=O)c1)c1cccc(F)c1 [Compound 109]	106 % of control	96 % of control	113 % of control	105 % of control	93 % of control	98 % of control	79 % of control	92 % of control	92 % of control	92 % of control	97 % of control	98 % of control	90 % of control	84 % of control	93 % of control	93 % of control	99 % of control	99 % of control
